# Reference: PubChem BioAssay (NCI)
# Several values for one entry are separate records, joined by “and”; a condition that tells them apart may be missing. Identical values can stand only once.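 Interpolation was linear, between the two tested concentrations surrounding the appropriate level; five concentrations were tested over 48 hours in 96-well plates. The concentration for 50% growth inhibition is given as GI50. TGI: concentration producing complete growth inhibition.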
# Legend:
# Assay in all cases: DTP human tumour cell line panel, 48 h
# SW-620 colon = system: SW-620 colon
# IGROV1 ovarian = system: IGROV1 ovarian
# HT29 colon = system: HT29 colon
# NCI-H522 lung = system: NCI-H522 lung
# NCI-H226 lung = system: NCI-H226 lung
# OVCAR-4 ovarian = system: OVCAR-4 ovarian
# UACC-62 melanoma = system: UACC-62 melanoma
# NCI/ADR-RES ovarian = system: NCI/ADR-RES ovarian
# CCRF-CEM leukemia = system: CCRF-CEM leukemia
# CAKI-1 renal = system: CAKI-1 renal
SMILES,GI50 (SW-620 colon) [nM],TGI (SW-620 colon),GI50 (IGROV1 ovarian) [nM],TGI (IGROV1 ovarian) [nM],GI50 (HT29 colon) [nM],TGI (HT29 colon) [nM],GI50 (NCI-H522 lung) [nM],TGI (NCI-H522 lung) [nM],GI50 (NCI-H226 lung) [nM],TGI (NCI-H226 lung),GI50 (OVCAR-4 ovarian) [nM],TGI (OVCAR-4 ovarian) [nM],GI50 (UACC-62 melanoma) [nM],TGI (UACC-62 melanoma) [nM],GI50 (NCI/ADR-RES ovarian) [nM],TGI (NCI/ADR-RES ovarian) [nM],GI50 (CCRF-CEM leukemia) [nM],TGI (CCRF-CEM leukemia) [nM],GI50 (CAKI-1 renal) [nM],TGI (CAKI-1 renal) [nM]
COc1ccc(C2[C@@H](c3ccccc3)C(=O)N2c2cc(OC)c(OC)c(OC)c2)cc1F (some centres undefined),41.9,> 100000 nM,42.8,> 100000,26,78.1,18.6,65.7,35,> 100000 nM,87.1,> 100000,54.3,> 100000,39.4,> 100000,36.1,> 100000,33.2,> 100000
COc1ccc(/C=N/NC(=O)c2cccc3cc[nH]c23)cc1O,650,> 100000 nM,7910,> 100000,4320,> 100000,2260,> 100000,6280,> 33700 nM,10300,> 100000,878,> 35100,1860,> 100000,1930,> 28500,192,> 49000
O=C(O)c1ccc2c(c1C(=O)O)C(=O)OC2(c1ccc(O)cc1)c1ccc(O)cc1,,> 100000 nM,,> 100000,,> 100000,,> 100000,,> 100000 nM,,> 100000,,> 100000,,> 100000,,> 100000,,> 100000
O=C(CCCSc1nc(-c2ccccc2)cc(-c2ccccc2)n1)NO,777,12700 nM,1500,9130,2460,12200,1860,9510,1190,9280 nM,1670,14900,1320,3210,305,10500,368,10600,516,6460
CCC(=C/[C@H](C)C/C=C/C(C)=C/[C@@H](C)C(=O)[C@@H](C)[C@H](O)[C@@H](C)CC)/C=C/[C@H]1OC(=O)C=C[C@@H]1C,< 10,1320 nM,< 10,7670,< 10,1150,< 10,,< 10,554 nM,< 10,3670,< 10,276,< 10,4310,< 10,2660,< 10,327
CC1=C2C(=C[C@@](C)(CO)[C@@H]2O)C(=O)[C@](C)(O)C12CC2,,74 nM and 129 nM,,58.3,,28.6,,10.8,,50.7 nM and 61.1 nM,,26.7,,26.5,,24.3,342,,178,
CCCOc1cc2ccccc2cc1C(=O)Nc1nc(N)c2c(ccc3nccc32)[nH]1,37.7,1800 nM,519,2890,34.1,129,18,42.6,1310,3320 nM,1550,4370,40.3,1960,96.2,2240,42,1490,620,3310
